Test results: patent publication US12655104B2, “Anticancer compounds selective for ER-positive cancers” (THE BOARD OF TRUSTEES OF THE UNIVERSITY OF ILLINOIS, priority 2020, dated 2026)
Where two headings read alike, the source gives them in different places.

Experiments:
[1] = Simulated gastric fluid (SGF) stability assay; assay type: in vitro ADME; conditions: 100 μM in SGF with pepsin, 120 min
Procedure: Simulated Gastric Fluid (SGF) Stability Assay. SGF was prepared fresh by adding 3.2 g pepsin (Sigma Aldrich P7000) to 1000 mL of SGF (Fischer Scientific 7108-16) and the pH adjusted to 1.2 using a pH meter. This SGFwith pepsin solution was then warmed to 37° C. 990 μL of warmed SGFwith pepsin was then aliquoted into multiple Eppendorf tubes, followed by 10 μL of 10 mM DMSO stock solutions of test compounds. Erythromycin (MedChemExpress HY-B0220) is a positive control for this stability assay. Samples were incubated at 37° C. for the entire experiment with vortexing every 15 minutes. At each desired time point (0, 15, 30, 60, 120 minutes), a 100 μL aliquot is removed and quenched into 50 μL of acetonitrile. Samples are stored at 4° C. until all time points are complete. Samples were then vortexed and then clarified at 3,000 RPM for 10 minutes in a 4° C. centrifuge. Supernatants were collected and compound concentrations determined by LC-MS/MS (UIUC Metabolomics Center, Urbana, IL.). Determined compound concentrations were used to calculate percent remaining compared to t=0 samples.

[2] = tested on: MCF-7 tumors; assay: MCF-7 orthotopic tumor model; assay type: in vivo, mice
Procedure: MCF-7 Orthotopic Tumor Model. Nu/J ovariectomized mice (Jackson's lab) were supplemented with a 60-day E2 pellet (0.36 mg, Innovative Research of America) 2-3 days prior to tumor cell inoculation. MCF-7 cells (5×10^6, in 1:1 HBSS:matrigel) were inoculated into the mammary fat pad and allowed to establish and tumors grown to ˜300-400 mm^3 (˜21-28 days to establish). […] Tumor size was measured by caliper, and mouse weights were recorded.

[3] = tested on: T47D; assay: Alamar blue fluorescence viability (IC50), T47D; assay type: cell-based; conditions: Homo sapiens, 24 h, read-out: IC50 24 hr (μM)
Procedure: Cancer Cell Lines: Culturing Conditions and Validation. All cell lines were cultured at 37° C. with 5% CO2. All ERα-positive cell lines were grown in media lacking phenol red. MCF-7 were grown in EMEM with 10% FBS and 1% penicillin-streptomycin (P/S). T47D were cultured in MEM with 10% FBS and 1% P/S. TYS and TDG cells were grown in MEM supplemented with 10% CD-FBS and 1% P/S. HCT-116 and MDA-MB-231 cells were cultured in RPMI-1640 supplemented with 10% FBS and 1% P/S. MDA-MB-436 cells were cultured in DMEM supplemented with 10% FBS and 1% P/S. HT-29 were cultured in McCoy's media supplemented with 10% FBS and 1% P/S. All cell lines were used directly from ATCC stocks and/or have been further authenticated using PowerPlex16HS Assay (Promega) as described previously.^54 In short, >1 million cells were harvested and lysed using the cell lysis buffer (50 mM Tris, 50 mM EDTA, 25 mM sucrose, 100 mM NaCl, 1% SDS, pH 8). […]
Alamar Blue Fluorescence for Anticancer Activity (IC50). […] After 2-6 hours incubation, each well's fluorescence (λexcit.=555 nm, λemission.=585 nm) was measured using a SpectraMax M3 plate reader (Molecular Devices). Percent dead was determined by comparison to a 100% dead control: 100 μM raptinal treated cells. Dose dependent curves and IC50 were calculated using Origin Pro V10.

[4] = tested on: MDA-MB-436; assay: Alamar blue fluorescence viability (IC50), MDA-MB-436; assay type: cell-based; conditions: for IC50: Homo sapiens
Procedure: (§1) Cancer Cell Lines: Culturing Conditions and Validation. All cell lines were cultured at 37° C. with 5% CO2. All ERα-positive cell lines were grown in media lacking phenol red. MCF-7 were grown in EMEM with 10% FBS and 1% penicillin-streptomycin (P/S). T47D were cultured in MEM with 10% FBS and 1% P/S. TYS and TDG cells were grown in MEM supplemented with 10% CD-FBS and 1% P/S. HCT-116 and MDA-MB-231 cells were cultured in RPMI-1640 supplemented with 10% FBS and 1% P/S. MDA-MB-436 cells were cultured in DMEM supplemented with 10% FBS and 1% P/S. HT-29 were cultured in McCoy's media supplemented with 10% FBS and 1% P/S. All cell lines were used directly from ATCC stocks and/or have been further authenticated using PowerPlex16HS Assay (Promega) as described previously.^54 In short, >1 million cells were harvested and lysed using the cell lysis buffer (50 mM Tris, 50 mM EDTA, 25 mM sucrose, 100 mM NaCl, 1% SDS, pH 8). DNA extraction and short tandem repeats (STRs) profiling for each cell line were carried out at the University of Arizona Genetics Core (UAGC). Autosomal STR profiles were compared to reference databases such as ATCC, DSMZ, and JCRB.
(§2) Alamar Blue Fluorescence for Anticancer Activity (IC50). 2,000-15,000 cells per well were seeded a 96-well plate. Cells were allowed to adhere before DMSO stock solutions of test compounds were added to each well with a final concentration of DMSO in each well=1%; final volume: 100 μL. At the end of the desired incubation time (e.g., 24 or 72 hours), media in each well was aspirated and new fresh media (no compound, 100 μL) was added. Alamar blue solution (4 mg resazurin per 40 mL PBS) was then added (10 μL). After 2-6 hours incubation, each well's fluorescence (λexcit.=555 nm, λemission.=585 nm) was measured using a SpectraMax M3 plate reader (Molecular Devices). Percent dead was determined by comparison to a 100% dead control: 100 μM raptinal treated cells. Dose dependent curves and IC50 were calculated using Origin Pro V10.

[5] = tested on: HT-29; assay: Alamar blue fluorescence viability (IC50), HT-29; assay type: cell-based; conditions: for IC50: Homo sapiens
Procedure: as §1, §2

In the case of O=C1Nc2c(C(F)(F)F)cccc2[C@@]1(c1ccc(O)cc1)N1CCC(F)(F)CC1 (single isomer, unassigned) [ErSO-DFP], the “% Remaining after 120 min (SD)” value [1] is reported as 13±1%, the “mouse weight change during MCF-7 study” value ([2]; I.V. 5 mg/kg once-a-week, three total doses) is reported as “no significant weight change” and the “antitumor effect on MCF-7 tumors” value ([2]; I.V. 5 mg/kg once-a-week, three total doses, tumors >300 mm^3) is reported as “profound regression of MCF-7 tumors”. The “increase in therapeutic index (TI) relative to ErSO” value ([2]; from efficacy data and head-to-head MTD studies) was no less than 5 fold, the IC50 [3] was 0.016 ± 0.002 µM and the “Fold Change” value ([4]; Average Fold Change between 24/72 hr IC50 values for MCF-7 and MDA-MB-436) was 3235. For the same compound, the IC50 ([4]; MDA-MB-436, 24 h, read-out: IC50 24 hr (μM)) was 64 ± 3 µM, the IC50 ([4]; MDA-MB-436, 72 h, read-out: IC50 72 hr (μM)) was 55 ± 9 µM and the “Fold Change” value ([5]; Average Fold Change between 24/72 hr IC50 values for MCF-7 and HT-29) was 1588. The IC50 ([5]; HT-29, 24 h, read-out: IC50 24 hr (μM)) was 33 ± 4 µM and the IC50 ([5]; HT-29, 72 h, read-out: IC50 72 hr (μM)) was 27 ± 4 µM.
